Assay results reported in BindingDB's records for doi:10.1021/jm0509703 (Takeda Pharmaceutical, 2006).

How the values were obtained:
[1] = Inhibition of membrane fusion between HIV1 JR-FL Env-expressing COS7 cells and MOLT4/CCR5
[2] = Inhibition of replication of R5 HIV1 Ba-L in MOLT4/CCR5 cells

| SMILES | IC50 [1] [nM] | IC50 [2] [nM] |
| --- | --- | --- |
| CCCCOCCOc1ccc(-c2ccc3c(c2)C=C(C(=O)Nc2ccc([S+]([O-])Cc4nncn4CCC)cc2)CCCN3CCC)cc1 [(S)-(-)-8-{4-[2-(butoxy)ethoxy]phenyl}-1-propyl-N-(4-{[(4-propyl-4H-1,2,4-triazol-3-yl)methyl]sulfinyl}phenyl)-1,2,3,4-tetrahydro-1-benzazocine-5-carboxamide] | 0.95 |  |
| CCCCOCCOc1ccc(-c2ccc3c(c2)C=C(C(=O)Nc2ccc([S+]([O-])Cc4cncn4CCC)cc2)CCCCN3CC(C)C)cc1 [(S)-(-)-9-{4-[2-(butoxy)ethoxy]phenyl}-1-isobutyl-N-(4-{[(1-propyl-1H-imidazol-5-yl)methyl]sulfinyl}phenyl)-2,3,4,5-tetrahydro-1H-1-benzazonine-6-carboxamide] | 0.48 | 2.1 |
| CCCCOCCOc1ccc(-c2ccc3c(c2)C=C(C(=O)Nc2ccc([S+]([O-])Cc4cncn4CCC)cc2)CCCN3CCC)cc1 [(S)-(-)-8-{4-[2-(butoxy)ethoxy]phenyl}-1-propyl-N-(4-{[(1-propyl-1H-imidazol-5-yl)methyl]sulfinyl}phenyl)-1,2,3,4-tetrahydro-1-benzazocine-5-carboxamide] | 0.24 | 1.4 |
| CCCCOCCOc1ccc(-c2ccc3c(c2)C=C(C(=O)Nc2ccc([S+]([O-])Cc4nncn4CCC)cc2)CCCN3CC(C)C)cc1 (stereo not given) | 0.19 |  |
| CCCCOCCOc1ccc(-c2ccc3c(c2)C=C(C(=O)Nc2ccc([S+]([O-])Cc4cncn4CCC)cc2)CCN3CC(C)C)cc1 (stereo not given) [7-(4-(2-butoxyethoxy)phenyl)-1-isobutyl-N-(4-((1-propyl-1H-imidazol-5-yl)methylsulfinyl)phenyl)-2,3-dihydro-1H-benzo[b]azepine-4-carboxamide] | 1 | 5.3 |
| CCCCOCCOc1ccc(-c2ccc3c(c2)C=C(C(=O)Nc2ccc([S+]([O-])Cc4cncn4CCC)cc2)CCCN3Cc2cnn(C)c2)cc1 (stereo not given) | 0.21 | 2.3 |
